Results published in patent publication US20250230154A1, “COMPOUND HAVING SHP2 PROTEIN DEGRADING ACTIVITY, AND MEDICAL USES THEREOF” (UBIX THERAPEUTICS, INC., priority 2021, published 2025).

Biological target: T1, SHP2 protein (Homo sapiens, UniProt Q06124)
T1 sequence (Q06124 1-593): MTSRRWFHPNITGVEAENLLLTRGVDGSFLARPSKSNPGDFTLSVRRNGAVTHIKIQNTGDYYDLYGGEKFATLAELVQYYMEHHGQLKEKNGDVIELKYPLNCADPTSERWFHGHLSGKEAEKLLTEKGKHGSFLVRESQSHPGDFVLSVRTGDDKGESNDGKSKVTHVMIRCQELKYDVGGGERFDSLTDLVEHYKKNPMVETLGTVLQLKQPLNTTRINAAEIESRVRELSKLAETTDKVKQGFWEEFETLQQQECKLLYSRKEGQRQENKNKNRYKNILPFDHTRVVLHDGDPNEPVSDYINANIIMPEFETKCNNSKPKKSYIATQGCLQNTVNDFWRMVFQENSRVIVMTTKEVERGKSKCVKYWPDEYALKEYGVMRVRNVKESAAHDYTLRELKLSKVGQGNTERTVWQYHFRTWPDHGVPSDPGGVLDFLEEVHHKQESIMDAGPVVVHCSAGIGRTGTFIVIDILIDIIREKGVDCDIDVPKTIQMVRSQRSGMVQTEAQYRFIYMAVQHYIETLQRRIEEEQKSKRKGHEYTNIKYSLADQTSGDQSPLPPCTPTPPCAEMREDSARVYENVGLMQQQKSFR
Assay: Measurement of SHP2 protein degradation in MV-4-11 cells (western blotting)
Assay type: cell-based
Set-up: endogenous in cells; host or cells: MV-4-11
Conditions: for SHP2 degradation (%) 10 nM / SHP2 degradation (%) 100 nM / SHP2 degradation (%) 1000 nM: MV-4-11 cells, 24 hours
Outline: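 SHP2 protein levels were assessed by western blotting in MV-4-11 cells after a 24 hour compound treatment. Lysates were sonicated, centrifuged, normalized by BCA assay at 562 nm, run on Bis-tris 4-12% gels, transferred to NC membrane, probed with anti-SHPTP2 (70 kDa) and anti-GAPDH (37 kDa) antibodies, and detected on LI-COR Odyssey.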

SMILES: Cc1ncsc1-c1ccc(CNC(=O)[C@@H]2C[C@@H](O)CN2C(=O)[C@@H](NC(=O)C2(F)CC2)C(C)(C)C)c(OCCN2CCN(C(=O)C(C)C(=O)Nc3cccc(Sc4cnc(N5CCC(C)(CN)CC5)cn4)c3Cl)CC2)c1 (stereo partly drawn) [Example 58, (2S,4R)—N-(2-(2-(4-(3-((3-((5-(4-(aminomethyl)-4-methylpiperidin-1-yl)pyrazin-2-yl)thio)-2-chlorophenyl)amino)-2-methyl-3-oxopropanoyl)piperazin-1-yl)ethoxy)-4-(4-methylthiazol-5-yl)benzyl)-1-((S)-2-(1-fluorocyclopropane-1-carboxamido)-3,3-dimethylbutanoyl)-4-hydroxypyrrolidine-2-carboxamide]
- SHP2 degradation (%) 10 nM: 90.0%
- SHP2 degradation (%) 100 nM: 99.9%

SMILES: Cc1ncsc1-c1ccc(CNC(=O)[C@@H]2C[C@@H](O)CN2C(=O)[C@@H](NC(=O)C2(F)CC2)C(C)(C)C)c(OCCCN2CCN(C(=O)CC(=O)Nc3cccc(Sc4cnc(N5CCC(C)(CN)CC5)cn4)c3Cl)[C@H](C)C2)c1 [Example 65]
- SHP2 degradation (%) 10 nM: 31.6%
- SHP2 degradation (%) 100 nM: 95.4%

SMILES: Cc1ncsc1-c1ccc(CNC(=O)[C@@H]2C[C@@H](O)CN2C(=O)[C@@H](NC(=O)C2(F)CC2)C(C)(C)C)c(OCCC2CCN(C(=O)C(=O)Nc3cccc(Sc4cnc(N5CCC(C)(CN)CC5)cn4)c3Cl)CC2)c1 [Example 27, (2S,4R)—N-(2-(2-(1-(2-((3-((5-(4-(aminomethyl)-4-methylpiperidin-1-yl)pyrazin-2-yl)thio)-2-chlorophenyl)amino)-2-oxoacetyl)piperidin-4-yl)ethoxy)-4-(4-methylthiazol-5-yl)benzyl)-1-((S)-2-(1-fluorocyclopropane-1-carboxamido)-3,3-dimethylbutanoyl)-4-hydroxypyrrolidine-2-carboxamide]
- SHP2 degradation (%) 10 nM: 23.5%
- SHP2 degradation (%) 100 nM: 72%
- SHP2 degradation (%) 1000 nM: 91.5%

SMILES: Cc1ncsc1-c1ccc(CNC(=O)[C@@H]2C[C@@H](O)CN2C(=O)[C@@H](NC(=O)C2(F)CC2)C(C)(C)C)c(OCCN2CC3CCC(C2)N3C(=O)CC(=O)Nc2cccc(Sc3cnc(N4CCC(C)(CN)CC4)cn3)c2Cl)c1 [Example 68, (2S,4R)—N-(2-(2-(8-(3-((3-((5-(4-(aminomethyl)-4-methylpiperidin-1-yl)pyrazin-2-yl)thio)-2-chlorophenyl)amino)-3-oxopropanoyl)-3,8-diazabicyclo[3.2.1]octan-3-yl)ethoxy)-4-(4-methylthiazol-5-yl)benzyl)-1-((S)-2-(1-fluorocyclopropane-1-carboxamido)-3,3-dimethylbutanoyl)-4-hydroxypyrrolidine-2-carboxamide]
- SHP2 degradation (%) 10 nM: 83.3%
- SHP2 degradation (%) 100 nM: 98.3%

SMILES: Cc1ncsc1-c1ccc(CNC(=O)[C@@H]2C[C@@H](O)CN2C(=O)[C@@H](NC(=O)C2CC2)C(C)(C)C)c(OCCN2CCN(CC(=O)Nc3cccc(Sc4cnc(N5CCC(C)(CN)CC5)cn4)c3Cl)C(=O)C2)c1 [Example 79, (2S,4R)—N-(2-(2-(4-(2-((3-((5-(4-(aminomethyl)-4-methylpiperidin-1-yl)pyrazin-2-yl)thio)-2-chlorophenyl)amino)-2-oxoethyl)-3-oxopiperazin-1-yl)ethoxy)-4-(4-methylthiazol-5-yl)benzyl)-1-((S)-2-(cyclopropanecarboxamido)-3,3-dimethylbutanoyl)-4-hydroxypyrrolidine-2-carboxamide]
- SHP2 degradation (%) 10 nM: 78.4%
- SHP2 degradation (%) 100 nM: 98.6%

SMILES: CC(=O)N[C@H](C(=O)N1C[C@H](O)C[C@H]1C(=O)NCc1ccc(-c2scnc2C)cc1OCCN1CCN(C(=O)CC(=O)Nc2cccc(Sc3cnc(N4CCC(C)(CN)CC4)cn3)c2Cl)CC1)C(C)(C)C [Example 57, (2S,4R)-1-((S)-2-acetamido-3,3-dimethylbutanoyl)-N-(2-(2-(4-(3-((3-((5-(4-(aminomethyl)-4-methylpiperidin-1-yl)pyrazin-2-yl)thio)-2-chlorophenyl)amino)-3-oxopropanoyl)piperazin-1-yl)ethoxy)-4-(4-methylthiazol-5-yl)benzyl)-4-hydroxypyrrolidine-2-carboxamide]
- SHP2 degradation (%) 10 nM: 95.7%
- SHP2 degradation (%) 100 nM: 99.8%
- SHP2 degradation (%) 1000 nM: 99.7%

SMILES: Cc1ncsc1-c1ccc(CNC(=O)[C@@H]2C[C@@H](O)CN2C(=O)[C@@H](NC(=O)C2(F)CC2)C(C)(C)C)c(OCCN2CCN(c3cnc(C(=O)Nc4cccc(Sc5cnc(N6CCC(C)(CN)CC6)cn5)c4Cl)nc3)CC2)c1 [Example 83, N-(3-((5-(4-(aminomethyl)-4-methylpiperidin-1-yl)pyrazin-2-yl)thio)-2-chlorophenyl)-5-(4-(2-(2-(((2S,4R)-1-((S)-2-(1-fluorocyclopropane-1-carboxamido)-3,3-dimethylbutanoyl)-4-hydroxypyrrolidine-2-carboxamido)methyl)-5-(4-methylthiazol-5-yl)phenoxy)ethyl)piperazin-1-yl)pyrimidine-2-carboxamide]
- SHP2 degradation (%) 10 nM: 79.9%
- SHP2 degradation (%) 100 nM: 97.5%

SMILES: Cc1ncsc1-c1ccc(CNC(=O)[C@@H]2C[C@@H](O)CN2C(=O)[C@@H](NC(=O)C2(F)CC2)C(C)(C)C)c(OCCN2CCN(c3nccc(C(=O)Nc4cccc(Sc5cnc(N6CCC(C)(CN)CC6)cn5)c4Cl)n3)CC2)c1 [Example 86, N-(3-((5-(4-(aminomethyl)-4-methylpiperidin-1-yl)pyrazin-2-yl)thio)-2-chlorophenyl)-2-(4-(2-(2-(((2S,4R)-1-((S)-2-(1-fluorocyclopropane-1-carboxamido)-3,3-dimethylbutanoyl)-4-hydroxypyrrolidine-2-carboxamido)methyl)-5-(4-methylthiazol-5-yl)phenoxy)ethyl)piperazin-1-yl)pyrimidine-4-carboxamide]
- SHP2 degradation (%) 10 nM: −29.2%
- SHP2 degradation (%) 100 nM: 23.8%

SMILES: Cc1ncsc1-c1ccc(CNC(=O)[C@@H]2C[C@@H](O)CN2C(=O)[C@@H](NC(=O)C2(F)CC2)C(C)(C)C)c(OCCN2CCN(C(=O)C(C)(C)C(=O)Nc3cccc(Sc4cnc(N5CCC(C)(CN)CC5)cn4)c3Cl)CC2)c1 [Example 59, (2S,4R)—N-(2-(2-(4-(3-((3-((5-(4-(aminomethyl)-4-methylpiperidin-1-yl)pyrazin-2-yl)thio)-2-chlorophenyl)amino)-2,2-dimethyl-3-oxopropanoyl)piperazin-1-yl)ethoxy)-4-(4-methylthiazol-5-yl)benzyl)-1-((S)-2-(1-fluorocyclopropane-1-carboxamido)-3,3-dimethylbutanoyl)-4-hydroxypyrrolidine-2-carboxamide]
- SHP2 degradation (%) 10 nM: −2.0%
- SHP2 degradation (%) 100 nM: 3.0%
- SHP2 protein degradation activity (in words) (comment on Table 4): somewhat decreased

SMILES: CC(=O)N[C@H](C(=O)N1C[C@H](O)C[C@H]1C(=O)NCc1ccc(-c2scnc2C)cc1OCCCN1CCC(CC(=O)Nc2cccc(Sc3cnc(N4CCC(C)(CN)CC4)cn3)c2Cl)CC1)C(C)(C)C [Example 12, (2S,4R)-1-((S)-2-acetamido-3,3-dimethylbutanoyl)-N-(2-(3-(4-(2-((3-((5-(4-(aminomethyl)-4-methylpiperidin-1-yl)pyrazin-2-yl)thio)-2-chlorophenyl)amino)-2-oxoethyl)piperidin-1-yl)propoxy)-4-(4-methylthiazol-5-yl)benzyl)-4-hydroxypyrrolidine-2-carboxamide]
- SHP2 degradation (%) 10 nM: 23.9%
- SHP2 degradation (%) 100 nM: 88.4%
- SHP2 degradation (%) 1000 nM: 93.3%

SMILES: Cc1ncsc1-c1ccc(CNC(=O)[C@@H]2C[C@@H](O)CN2C(=O)[C@@H](NC(=O)C2(F)CC2)C(C)(C)C)c(OCCCC2CCN(C(=O)CC(=O)Nc3cccc(Sc4ncc(N5CCC(C)(CN)CC5)nc4N)c3Cl)CC2)c1 [Example 42, (2S,4R)—N-(2-(3-(1-(3-((3-((3-amino-5-(4-(aminomethyl)-4-methylpiperidin-1-yl)pyrazin-2-yl)thio)-2-chlorophenyl)amino)-3-oxopropanoyl)piperidin-4-yl)propoxy)-4-(4-methylthiazol-5-yl)benzyl)-1-((S)-2-(1-fluorocyclopropane-1-carboxamido)-3,3-dimethylbutanoyl)-4-hydroxypyrrolidine-2-carboxamide]
- SHP2 degradation (%) 10 nM: 73.5%
- SHP2 degradation (%) 100 nM: 95.0%

SMILES: Cc1ncsc1-c1ccc(CNC(=O)[C@@H]2C[C@@H](O)CN2C(=O)[C@@H](NC(=O)C2(F)CC2)C(C)(C)C)c(OCCC2CCN(CCC(=O)Nc3cccc(Sc4cnc(N5CCC(C)(CN)CC5)cn4)c3Cl)CC2)c1 [Example 74, (2S,4R)—N-(2-(2-(1-(3-((3-((5-(4-(aminomethyl)-4-methylpiperidin-1-yl)pyrazin-2-yl)thio)-2-chlorophenyl)amino)-3-oxopropyl)piperidin-4-yl)ethoxy)-4-(4-methylthiazol-5-yl)benzyl)-1-((S)-2-(1-fluorocyclopropane-1-carboxamido)-3,3-dimethylbutanoyl)-4-hydroxypyrrolidine-2-carboxamide]
- SHP2 degradation (%) 10 nM: 29.0%
- SHP2 degradation (%) 100 nM: 80.5%
- SHP2 degradation (%) 1000 nM: 94.5%
